In paper PMC7910296, “Phosphorescent Ir(III) complexes conjugated with oligoarginine peptides serve as optical probes for in vivo microvascular imaging” (Scientific Reports, 2021):

Columns and labels:
[1] = test system: vascular endothelium; assay: In vivo luminescence intensity and lifetime imaging after intravenous administration
[2] = Absorption and emission spectra; type: physicochemical; details: MeCN with 1% DMSO, room temperature
Protocol: Absorption and emission spectra were recorded on a UV–Vis spectrophotometer (Ubest V-550, JASCO) and a photonic multichannel analyzer PMA-12 (C11027-01, Hamamatsu Photonics) equipped with a monochromatized Xe arc lamp, respectively. The emission spectra were fully corrected for spectral sensitivity.

[3] = Water solubility / aggregate formation in aqueous solution; type: physicochemical
Source text: Ir(III) complexes BTQ-Rn (n = 4, 8, 12, 16) with different lengths of arginine peptides in the ligand (Fig. 1) were obtained by chemical synthesis, including solid-phase synthesis of the peptides. The synthetic details and characterization of BTQ-Rn are described in Supplementary Information. We first examined the spectral and photophysical properties of the synthesized BTQ-Rn (n = 4, 8, 12, 16) in MeCN and Tris–HCl buffer (pH 7.0) and compared them to the parent complex BTQphen. Figure 2A,B show the absorption and emission spectra of BTQphen and BTQ-R12 (a representative BTQ-Rn) in MeCN. […] The first absorption band of BTQ-R12, which has a molar absorption coefficient of 7600 mol^−1 dm^3 cm^−1 at 496 nm, can be assigned to the singlet metal-to-ligand charge transfer (^1MLCT) transition. Emissions appear in the red to near-infrared region, with the maximum at around 660 nm, and show a very large Stokes shift. The emission decay profiles follow single-exponential functions, with lifetimes of 5.7 μs for BTQphen and 5.9 μs for BTQ-R12 in deaerated MeCN, and 0.28 μs for BTQphen and BTQ-R12 in aerated MeCN (Table 1). The extremely long lifetimes in deaerated solution and significant quenching by dissolved oxygen indicate that emission is due to phosphorescence. […]

[4] = Phosphorescence lifetime in solution (time-correlated single-photon counting); type: physicochemical; details: 37 °C
Protocol: (§1) Phosphorescence lifetimes were measured with a time-correlated single-photon counting fluorimeter (Quantaurus-Tau C11367G, Hamamatsu Photonics). A laser diode (M12488-35, Hamamatsu Photonics; 481 nm, pulse width 70 ps) was used as the excitation light source. The temperature of the sample solution was controlled by circulating water through a jacket cuvette holder from a temperature controlled bath (RTE7, Neslab). Phosphorescence quantum yields were determined on an absolute photoluminescence quantum yield measurement system (C9920-02, Hamamatsu Photonics) consisting of a Xe arc lamp, a monochromator, an integrating sphere, and a multichannel detector[41].

[5] = Phosphorescence quantum yield (absolute photoluminescence quantum yield system); type: physicochemical; details: room temperature
Protocol: as §1

emission maximum [2] | aggregate formation ([3]; aqueous solution / Tris–HCl buffer (pH 7.0), from spectra and single-exponential decay) | water solubility ([3]; aqueous solution, in words) | τp, phosphorescence lifetime ([4]; aerated MeCN) | τp0, phosphorescence lifetime ([4]; deaerated MeCN) | Φp, phosphorescence quantum yield ([5]; aerated MeCN) | Φp0, phosphorescence quantum yield ([5]; deaerated MeCN) | Compound | localization in liver ([1]; living mice, PC6S 50 nmol iv, fluorescence intensity images of liver) | localization in renal cortex ([1]; mouse kidney, about 1 h after intravenous administration (100 nmol; FITC-lectin 1 mg/mL, 50 μL), luminescence intensity images)
– | – | – | – | – | – | – | CCN(CC)c1ccc2cc3cc(-c4nc5ccccc5s4)c(=O)oc3cc2c1 [PC6S, reference compound] | taken up into hepatocytes and likely accumulates in LDs and the ER | –
around 660 nm | forms aggregates | extremely low water solubility | 0.28 µs | 5.7 µs | 0.015 | 0.32 | (btq)2Ir(phen-pipe) [BTQphen] | – | localized in tubular cells rather than in capillaries
